US20100152129A1 (priority 2008, published 2010)
Like-named read-outs stand apart in the source and are kept apart here.

Key:
Panc1 cells [1] = test: Drug induced cytotoxicity at various time points, comparison with known CDK inhibitors
Panc-1 cells = test: Protein expression using high content cell imaging system, and efficacy score; type: cell-based; settings: for Efficacy score: cumulative over proteins of Table 7; for BCL2 protein expression: test concentration or dose not given here; for CCND1 protein expression: test concentration or dose not given here; for CDC25B protein expression: test concentration or dose not given here; for CDKN2A protein expression: test concentration or dose not given here; for COX15 protein expression: test concentration or dose not given here; for GADD45-α protein expression: test concentration or dose not given here; for GAPDH protein expression: test concentration or dose not given here; for ID1 protein expression: test concentration or dose not given here; for MMP-1 protein expression: test concentration or dose not given here; for P27 protein expression: test concentration or dose not given here; for PTN protein expression: test concentration or dose not given here
Panc1 cells [2] = settings: human
[3] = 6 hours post treatment, control 1
[4] = 6 hours post treatment, control 3
[5] = 6 hours post treatment, control 6
[6] = 6 hours post treatment, control 7
[7] = 6 hours post treatment, control 8
[8] = 6 hours post treatment, control 74
[9] = 6 hours post treatment, control 80
[10] = 6 hours post treatment, control 147
[11] = 6 hours post treatment, control 501
[12] = 6 hours post treatment, control 627
[13] = 6 hours post treatment, control 635
[14] = 6 hours post treatment, control 819
[15] = 6 hours post treatment, control 829
[16] = 6 hours post treatment, control 830
[17] = 6 hours post treatment, control 1240
[18] = 16 hours post treatment, control 13
[19] = 16 hours post treatment, control 54
[20] = 16 hours post treatment, control 64
[21] = 16 hours post treatment, control 67
[22] = 16 hours post treatment, control 76
[23] = 16 hours post treatment, control 77
[24] = 16 hours post treatment, control 90
[25] = 16 hours post treatment, control 100
[26] = 16 hours post treatment, control 202
[27] = 16 hours post treatment, control 579
[28] = 16 hours post treatment, control 644
[29] = 16 hours post treatment, control 711
[30] = 16 hours post treatment, control 718
[31] = 16 hours post treatment, control 929
[32] = 16 hours post treatment, control 1109
[33] = 16 hours post treatment, control 2583
[34] = 36 hours post treatment, control 19
[35] = 36 hours post treatment, control 86
[36] = 36 hours post treatment, control 96
[37] = 36 hours post treatment, control 98
[38] = 36 hours post treatment, control 100
[39] = 36 hours post treatment, control 265
[40] = 36 hours post treatment, control 715
[41] = 36 hours post treatment, control 722
[42] = 36 hours post treatment, control 1093
[43] = 36 hours post treatment, control 1316
[44] = 36 hours post treatment, control 1410
[45] = 36 hours post treatment, control 1441
[46] = 36 hours post treatment, control 2840

Q: Which results are given for `CC[C@H](CO)Nc1nc(NCc2ccccc2)c2ncn(C(C)C)c2n1` [Roscovitine]?
A: % Cytotoxicity in Panc1 cells (Panc1 cells [1]; 6 hrs after drug treatment): 12.35%; % Cytotoxicity in Panc1 cells (Panc1 cells [1]; 16 hrs after drug treatment): 15.24%; % Cytotoxicity in Panc1 cells (Panc1 cells [1]; 36 hrs after drug treatment): 17.35%; PTN protein expression (Panc-1 cells; [3]): 2 fluorescence units; GADD45-α protein expression (Panc-1 cells; [4]): 2 fluorescence units; ID1 protein expression (Panc-1 cells; [4]): 16 fluorescence units; P27 protein expression (Panc-1 cells; [5]): 6 fluorescence units; CDC25B protein expression (Panc-1 cells; [6]): 4 fluorescence units; CDKN2A protein expression (Panc-1 cells; [7]): 10 fluorescence units; CCND1 protein expression (Panc-1 cells; [8]): 82 fluorescence units; GAPDH protein expression (Panc-1 cells; [9]): 81 fluorescence units; CASP3 protein expression (Panc-1 cells; [10]): 217 fluorescence units; MMP-1 protein expression (Panc-1 cells; [11]): 417 fluorescence units; COX15 protein expression (Panc-1 cells; [12]): 936 fluorescence units; COX2 protein expression (Panc-1 cells; [13]): 542 fluorescence units; BAX protein expression (Panc-1 cells; [14]): 729 fluorescence units; VEGF protein expression (Panc-1 cells; [15]): 417 fluorescence units; BCL2 protein expression (Panc-1 cells; [16]): 569 fluorescence units; pRB protein expression (Panc-1 cells; [17]): 1578 fluorescence units; Efficacy score (Panc-1 cells; 6 hours): 1.9; GADD45-α protein expression (Panc-1 cells; [18]): 49 fluorescence units; CDC25B protein expression (Panc-1 cells; [19]): 38 fluorescence units; CDKN2A protein expression (Panc-1 cells; [20]): 47 fluorescence units; P27 protein expression (Panc-1 cells; [21]): 42 fluorescence units; PTN protein expression (Panc-1 cells; [22]): 37 fluorescence units; ID1 protein expression (Panc-1 cells; [23]): 55 fluorescence units; CCND1 protein expression (Panc-1 cells; [24]): 84 fluorescence units; GAPDH protein expression (Panc-1 cells; [25]): 99 fluorescence units; CASP3 protein expression (Panc-1 cells; [26]): 1272 fluorescence units; VEGF protein expression (Panc-1 cells; [27]): 475 fluorescence units; BCL2 protein expression (Panc-1 cells; [28]): 529 fluorescence units; BAX protein expression (Panc-1 cells; [29]): 747 fluorescence units; COX15 protein expression (Panc-1 cells; [30]): 954 fluorescence units; MMP-1 protein expression (Panc-1 cells; [31]): 475 fluorescence units; COX2 protein expression (Panc-1 cells; [32]): 990 fluorescence units; pRB protein expression (Panc-1 cells; [33]): 1632 fluorescence units; Efficacy score (Panc-1 cells; 16 hours): 11.5; GADD45-α protein expression (Panc-1 cells; [34]): 44 fluorescence units; COX2 protein expression (Panc-1 cells; [35]): 67 fluorescence units; P27 protein expression (Panc-1 cells; [36]): 63 fluorescence units; CCND1 protein expression (Panc-1 cells; [37]): 98 fluorescence units; CDC25B protein expression (Panc-1 cells; [37]): 68 fluorescence units; GAPDH protein expression (Panc-1 cells; [37]): 75 fluorescence units; ID1 protein expression (Panc-1 cells; [37]): 56 fluorescence units; PTN protein expression (Panc-1 cells; [38]): 98 fluorescence units; CASP3 protein expression (Panc-1 cells; [39]): 1335 fluorescence units; BAX protein expression (Panc-1 cells; [40]): 1785 fluorescence units; COX15 protein expression (Panc-1 cells; [41]): 1992 fluorescence units; VEGF protein expression (Panc-1 cells; [42]): 1024 fluorescence units; MMP-1 protein expression (Panc-1 cells; [43]): 1024 fluorescence units; BCL2 protein expression (Panc-1 cells; [44]): 1091 fluorescence units; CDKN2A protein expression (Panc-1 cells; [45]): 1322 fluorescence units; pRB protein expression (Panc-1 cells; [46]): 1889 fluorescence units; Efficacy score (Panc-1 cells; 36 hours): 8.1

Q: Which results are given for `CN1CC[C@H](c2c(O)cc(O)c3c(=O)cc(-c4ccccc4Cl)oc23)[C@H](O)C1` [Flavopiridol]?
A: % Cytotoxicity in Panc1 cells (Panc1 cells [2]; 16 h): 21.25%; % Cytotoxicity in Panc1 cells (Panc1 cells [2]; 36 h): 29.47%; PTN protein expression (Panc-1 cells; [3]): 1 fluorescence units; GADD45-α protein expression (Panc-1 cells; [4]): 1 fluorescence units; ID1 protein expression (Panc-1 cells; [4]): 2 fluorescence units; P27 protein expression (Panc-1 cells; [5]): 9 fluorescence units; CDC25B protein expression (Panc-1 cells; [6]): 1 fluorescence units; CDKN2A protein expression (Panc-1 cells; [7]): 67 fluorescence units; CCND1 protein expression (Panc-1 cells; [8]): 78 fluorescence units; GAPDH protein expression (Panc-1 cells; [9]): 80 fluorescence units; CASP3 protein expression (Panc-1 cells; [10]): 111 fluorescence units; MMP-1 protein expression (Panc-1 cells; [11]): 501 fluorescence units; COX15 protein expression (Panc-1 cells; [12]): 689 fluorescence units; COX2 protein expression (Panc-1 cells; [13]): 351 fluorescence units; BAX protein expression (Panc-1 cells; [14]): 481 fluorescence units; VEGF protein expression (Panc-1 cells; [15]): 501 fluorescence units; BCL2 protein expression (Panc-1 cells; [16]): 410 fluorescence units; pRB protein expression (Panc-1 cells; [17]): 1523 fluorescence units; Efficacy score (Panc-1 cells; 6 hours): 1.6; GADD45-α protein expression (Panc-1 cells; [18]): 15 fluorescence units; CDC25B protein expression (Panc-1 cells; [19]): 10 fluorescence units; CDKN2A protein expression (Panc-1 cells; [20]): 14 fluorescence units; P27 protein expression (Panc-1 cells; [21]): 22 fluorescence units; PTN protein expression (Panc-1 cells; [22]): 17 fluorescence units; ID1 protein expression (Panc-1 cells; [23]): 19 fluorescence units; CCND1 protein expression (Panc-1 cells; [24]): 52 fluorescence units; GAPDH protein expression (Panc-1 cells; [25]): 100 fluorescence units; CASP3 protein expression (Panc-1 cells; [26]): 536 fluorescence units; VEGF protein expression (Panc-1 cells; [27]): 129 fluorescence units; BCL2 protein expression (Panc-1 cells; [28]): 401 fluorescence units; BAX protein expression (Panc-1 cells; [29]): 252 fluorescence units; COX15 protein expression (Panc-1 cells; [30]): 459 fluorescence units; MMP-1 protein expression (Panc-1 cells; [31]): 129 fluorescence units; COX2 protein expression (Panc-1 cells; [32]): 466 fluorescence units; pRB protein expression (Panc-1 cells; [33]): 1300 fluorescence units; Efficacy score (Panc-1 cells; 16 hours): 9.4; GADD45-α protein expression (Panc-1 cells; [34]): 5 fluorescence units; COX2 protein expression (Panc-1 cells; [35]): 2 fluorescence units; P27 protein expression (Panc-1 cells; [36]): 2 fluorescence units; CCND1 protein expression (Panc-1 cells; [37]): 27 fluorescence units; CDC25B protein expression (Panc-1 cells; [37]): 21 fluorescence units; GAPDH protein expression (Panc-1 cells; [37]): 2 fluorescence units; ID1 protein expression (Panc-1 cells; [37]): 3 fluorescence units; PTN protein expression (Panc-1 cells; [38]): 100 fluorescence units; CASP3 protein expression (Panc-1 cells; [39]): 599 fluorescence units; BAX protein expression (Panc-1 cells; [40]): 1049 fluorescence units; COX15 protein expression (Panc-1 cells; [41]): 1256 fluorescence units; VEGF protein expression (Panc-1 cells; [42]): 316 fluorescence units; MMP-1 protein expression (Panc-1 cells; [43]): 316 fluorescence units; BCL2 protein expression (Panc-1 cells; [44]): 367 fluorescence units; CDKN2A protein expression (Panc-1 cells; [45]): 798 fluorescence units; pRB protein expression (Panc-1 cells; [46]): 1557 fluorescence units; Efficacy score (Panc-1 cells; 36 hours): 9.3
